Laboratory results: patent US5266562A, “Anti-inflammatory agents” (The United States of America as represented by the …, priority 1987, dated 1993)
Like-named read-outs stand apart in the source and are kept apart here.

What was measured:
[1] = system: prostanoid levels (PGE2, PGF2α) in skin lesions; test: Prostanoid levels (radioimmunoassay) in tissues injected with phorbol myristate acetate; type: in vivo, rabbit; details: for Effect on tissue prostanoid levels (PGE2, PGF2α) (in words): rabbit skin lesions injected with phorbol; for Prostaglandin levels PGE2 / Prostaglandin levels PGF2 α: rabbit skin lesions, phorbol 10 μM then test substance 20 μM 0.1 ml after 5 minutes, mean of two experiments; for Prostaglandin levels PGF2 α: ND = Nondetectable
Method: These tissues were used for histopathological analysis.
A similar groups of animals were sacrificed 48 hours after the injections were made and the skin lesions were dissected out and homogenized in cold phosphate buffered saline (PBS, pH 7.4). The homogenate was centrifuged at 2500×g for 10 minutes at 4° C. The supernatants were frozen at -70° C. until assayed for prostaglandins.

[2] = system: phorbol myristate acetate induced inflammation on rabbit skin; details: for Histopathology: inflammatory cells in phorbol injected skin (in words) / Effect on phorbol induced erythema and induration (in words) / Erythema (mm), Phorbol injected / Induration (mm), Phorbol injected: rabbit skin; for Histopathology: inflammatory cells in phorbol injected skin (in words): 20 μM injected after phorbol, FIG. 3; for Erythema (mm), Phorbol injected / Induration (mm), Phorbol injected: phorbol myristate acetate 10 μM, 0.1 ml, test substance 20 μM, mean ± SEM
Method: Animals: Virgin New Zealand rabbits weighting 3-3.5 Kg were used for all experiments. These animals were housed in separate cages and provided with food and water ad libitum. A daily schedule of 12 hours light and 12 hours darkness was maintained throughout the experimental period.
Induction of inflammation and the effect of uteroglobin: The dorsal skin of rabbits was shaved and 1/2 square inch areas demarcated lightly with a felt tip marker pen. […] The demarcated areas were used for identifying the locations where phorbol, carragennin, or other test substances were injected. Using a 25 gauge needle and a tuberculin syringe (1 cc), phorbol myristate acetate solution (10 mM) was injected into all areas, except for two, where no injections were given and two other areas where the solvent of phorbol myristate, dimethyl sulfoxide (DMSO), was injected alone. Various test substances were injected on one side of the vertebral column and the opposite side was used for controls. Thus, in this system a comparison of phorbol induced inflammation with the effects of various test substances could easily be made. These areas were observed daily and the diameter of the erythema and induration for each lesion was measured by the same observer. […] These tissues were used for histopathological analysis.

[3] = equimolar concentrations, concentration not given

Row | Erythema and induration induced by the substance itself (in words) ([2]; rabbit, in vivo) | Molecule | Effect on tissue prostanoid levels (PGE2, PGF2α) (in words) [1] | Prostaglandin levels PGE2 [1] | Prostaglandin levels PGF2 α [1] | Histopathology: inflammatory cells in phorbol injected skin (in words) [2] | Effect on phorbol induced erythema and induration (in words) [2, 3] | Erythema (mm), Phorbol injected [2] | Induration (mm), Phorbol injected [2] | Effect on phorbol induced erythema and induration (in words) ([2]; 10 μM, FIG. 4 dose response) | Effect on phorbol induced erythema and induration (in words) ([2]; 20 μM, FIG. 4 dose response)
1 | – | C[C@@H]1C[C@H]2[C@@H]3CCC4=CC(=O)C=C[C@]4(C)[C@@]3(F)[C@@H](O)C[C@]2(C)[C@@]1(O)C(=O)CO [Dexamethasone] | dramatically reduced these prostanoid levels | 106 pg/mg protein | 88 pg/mg protein | reduced the density of these inflammatory cells | dramatically reduced both erythema as well as induration | 10.5 ± 1.2 mm | 8.1 ± 2.0 mm | – | –
2 | induced some erythema and induration | CCCCC/C=C\C/C=C\C/C=C\C/C=C\CCCC(=O)O [arachidonic acid] | – | – | – | – | – | – | – | – | –
3 | – | Myoglobin | – | – | – | did not have any inhibitory effect | did not have any suppressive effect | – | – | – | –
4 | – | Uteroglobin: protein purified from uterine washings of rabbits primed with chorionic gonadotropin; also known as blastokinin (protein, UniProt P02779 22-91, looked up) Uteroglobin: GICPRFAHVIENLLLGTPSSYETSLKEFEPDDTMKDAGMQMKKVLDSLPQTTRENIMKLTEKIVKSPLCM | dramatically reduced these prostanoid levels | 94 pg/mg protein | 58 pg/mg protein | – | dramatically reduced both erythema as well as induration | 6.4 ± 0.5 mm | 5.1 ± 0.8 mm | Significant inhibitory effect | most dramatic effect
